Source: ChEMBL document CHEMBL1134192, “Targeting RNA with peptidomimetic oligomers in human cells” (Bioorg Med Chem Lett, 2001)
pIC50: −log10 of the molar value.

Organism: Homo sapiens
Test: Concentration that inhibits transcriptional activation of Tat protein in human cells
Format: functional, cell-based

Row | pIC50 | Compound
1 | 6.30 | N=C(N)NCCC[C@@H](COC(=O)N[C@@H](CCCCN)COC(=O)N[C@@H](CCCCN)COC(=O)N[C@@H](CCCN=C(N)N)COC(=O)N[C@@H](CCCN=C(N)N)COC(=O)N[C@@H](CCC(N)=O)COC(=O)N[C@@H](CCCN=C(N)N)COC(=O)N[C@@H](CCCN=C(N)N)COC(=O)N[C@@H](CCCN=C(N)N)C(=O)O)NC(=O)OCCNC(=O)[C@@H](N)Cc1ccc(O)cc1
2 | 6.00 | NCCCC[C@H](CNC(=O)N[C@H](CCCCN)CNC(=O)N[C@H](CCCN=C(N)N)CNC(=O)N[C@H](CCCN=C(N)N)CNC(=O)N[C@H](CCC(N)=O)CNC(=O)N[C@H](CCCN=C(N)N)CNC(=O)N[C@H](CCCN=C(N)N)CNC(=O)N[C@H](CCCN=C(N)N)CNC(=O)[C@@H](N)Cc1ccc(O)cc1)NC(=O)NC[C@@H](CCCN=C(N)N)NC(=O)NCCNC(N)=O
